{
  "source": "patent US11903935B2",
  "about": "“Inhibitors of SARM1 NADase activity and uses thereof” (Washington University, priority 2016, dated 2024)",
  "key": {"SARM1 TIR [1]": {"target": "T1, SARM1 TIR (Homo sapiens (Human), UniProt Q6SZW1)", "assay": "SARM1 TIR-based assay (bacterially expressed, tagged SARM1 TIR fragment on beads)", "format": "biochemical", "settings": "compound at 5 μM, 5 μM NAD+", "source_text": "The present Example describes a SARM1 TIR-based Assay. This assay is similar to the assay described in Example 1, but allows for the identification and/or characterization of compounds that directly interact with the TIR domain, whereas the assay described in Example 1 can also identify compounds that disrupt SAM domain interactions. This assay makes use of the bacterial expression of a tagged version of the SARM1 TIR fragment that can be affinity purified. Displaying this artificial SARM1 TIR domain on a solid surface (i.e. affinity beads) generates an active NAD+ cleavage enzyme.\nThe TIR domain of SARM1 was tagged with a tandem STREP-TAG® at the N-terminus, and a polyhistidine tag at the C-terminus, and was cloned into a pET30a+ plasmid. The construct was then transformed into SHuffle® T7 Express Competent E. coli (New England BioLabs, Ipswich, MA) and single colonies were grown overnight. The next day, cultures were diluted in LB media, grown at 30° C. until they reached A600=0.4-0.8, when IPTG (0.5 mM final concentration) was added. The bacteria were grown for an additional 4 h, pelleted by centrifugation, washed with PBS and stored at −80° C. For protein purification, the frozen bacterial pellet was thawed on ice, resuspended in binding buffer (without protease inhibitors) and incubated with 100 μg/mL lysozyme for 15 min on ice. Protease inhibitor cocktail was then added and the cells were lysed by sonication.\nThe SARM1 TIR protein was first purified by Strep Tag affinity methods where bacterial lysates were incubated with […] (STREP-TACTIN®, IBA GmBH, Gottingen Germany) type 3 XT beads suspension (IBA Lifesciences) for 30 min. The beads were then washed three times with binding buffer, and bound proteins were eluted from MagStrep type 3 XT beads with 22.5 mM biotin for 25 min. Supernatant containing the eluted protein was separated from MagStrep beads, and incubated with 10 μL Co2+ DYNABEAD® (ThermoFisher Scientific, Waltham, MA) suspension for 30 min to bind SARM1-TIR proteins via the His tag. The beads were then washed at least two times with binding buffer and resuspended in 100 μL of binding buffer for NADase assay.\nTen microliters of purified SARM1-TIR laden beads were incubated with 5 μM NAD+ in reaction buffer (92.4 mM NaCl and 0.64×PBS). Reactions were carried out at 25° C. for the indicated amount of time and stopped by addition of 1M of perchloric acid (HClO4) and placing the tube on ice. NAD+ metabolites were extracted using HClO4/K2CO3 method and quantified by HPLC (see metabolite measurement below). For LC-MS/MS analysis, the extraction was performed using 50% methanol in distilled water and chloroform (see LC-MS/MS metabolite measurement below). […] Select potent inhibitors (622608, 622689) identified from SARM1 SAM-TIR lysate screen were added to the reaction at 5 μM. NAD normalized to control at 0 min.\nMetabolites were isolated from enzyme reaction mixture by extracting with 1M HClO4, then neutralized with 3M K2CO3, and followed by separation by centrifugation. The supernatant (90 μL) containing the extracted metabolites was mixed with 0.5M Potassium Phosphate buffer (10 μL) and metabolites were analyzed by HPLC (Nexera X2) with KINETEX® (100×3 mm, 2.6 μm; PHENOMENEX®) column and metabolites are monitored with absorbance at 254 nm. Internal standards for NAD+, Nicotinamide (Nam), ADP Ribose (ADPR) were used to generate standard curves for quantification of the respective compounds. The levels for each compound in each experimental sample was normalized to the 0 min time point that was analyzed concurrently.\nThese analogs were tested using an assay that makes use of a bacterially-expressed tagged version of the SARM1 TIR fragment, as described in Example 2. Displaying this artificial SARM1 TIR domain on a solid surface (i.e. affinity beads) generates an active NAD+ cleavage enzyme."}, "DRG neurons": {"system": "DRG neurons", "assay": "In vitro axon degeneration assay after axotomy (degeneration index)", "format": "cell-based, mouse", "procedure": "Mouse dorsal root ganglion (DRG) were dissected from embryonic days 13.5 CD1 mouse embryo (˜50 ganglion per embryo) and incubated with 0.05% Trypsin solution containing 0.02% EDTA (Gibco) at 37° C. for 15 min. Then cell suspensions are triturated by gentle pipetting and washed 3 times with DRG growth medium (Neurobasal medium (Gibco) containing 2% B27 (Invitrogen), 100 ng/ml 2.5S NGF (Harlan Bioproduts), 1 μM uridine (Sigma), 1 μM 5-fluoro-2′-deoxyuridine (Sigma), penicillin, and streptomycin). Cells were suspended in DRG growth medium at a ratio of 100 μl medium/50 DRGs. The cell density of these suspensions was ˜7×10^6 cells/ml. Cell suspension (10 μl) was placed in the center of the well using 24-well tissue culture plates (Corning) coated with poly-D-Lysine (0.1 mg/ml; Sigma) and laminin (3 μg/ml; Invitrogen). […]\nAxonal degeneration was induced by axotomy or by the addition of vincristine (0.04 μM) using DRG drop cultures in 96 well at DIV 6. […] Axon degeneration was quantified using degeneration index (DI) calculated using ImageJ (NIH, Sasaki et al., 2009, J. Neurosci., […]: 5525-5535). […] The DI was calculated from axon images from the same fields before (0 hour) and after (9-72 hours) axotomy. […] Axon degeneration was monitored by imaging axons before injury, and various time points after axotomy."}, "SARM1 SAM-TIR lysate": {"target": "SARM1 SAM-TIR lysate (Homo sapiens (Human), UniProt Q6SZW1)", "sequence (Q6SZW1 other isoform, or with tags, fused parts or gaps)": "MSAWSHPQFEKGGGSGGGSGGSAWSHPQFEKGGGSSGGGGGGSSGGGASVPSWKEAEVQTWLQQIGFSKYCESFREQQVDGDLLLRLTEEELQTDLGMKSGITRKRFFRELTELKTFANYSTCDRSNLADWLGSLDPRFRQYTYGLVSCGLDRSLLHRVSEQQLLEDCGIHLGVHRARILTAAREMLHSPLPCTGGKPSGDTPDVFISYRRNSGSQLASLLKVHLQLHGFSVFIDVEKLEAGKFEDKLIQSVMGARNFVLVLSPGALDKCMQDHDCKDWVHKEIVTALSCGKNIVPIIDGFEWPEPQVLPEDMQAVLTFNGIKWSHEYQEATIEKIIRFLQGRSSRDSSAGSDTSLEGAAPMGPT", "assay": "Luminescence-based NAD+ Glo (NAD+ cycling) assay with SAM-TIR lysate", "format": "biochemical", "source_text": "Luminescence-based assay. This assay can complement the results obtained by HPLC, and can permit a higher throughput of compound library screening than is possible with HPLC methods. This assay is an adaptation of the NAD+/NADH-GLO™ assay (Promega G9071, Promega Corporation, Madison, WI). In this assay, NAD+ cycling enzymes convert NAD+ into NADH. In the presence of NADH, the reductase enzymatically converts a pro-luciferin reductase substrate into luciferin. Luciferin is detected using ULTRA-GLO™ rLuciferase, and the chemiluminescence intensity is proportional to the amount of NAD+ and NADH in the sample. Under the present assay conditions, the amount of NAD+ and NADH present in the lysate is undetectable with this assay, precluding any endogenous contribution to the final NAD+ detected. The assay was set up as follows: 2 μl candidate inhibitor (final concentration 1 μM, 2% DMSO), 0.07 μg lysate (2 μl), and 2 μl of 400 nM NAD+. The reaction was incubated at 37° C. for 60 min, then 6 μl NAD+/NADH-GLO™ detection reagent was added. After 30 min at room temperature, the luminescent signals were quantified using a CYTATION™ 5 imaging reader (BIOTEK®)."}, "SARM1 TIR [2]": {"target": "T1, SARM1 TIR", "assay": "NADase assay with purified bacterial hSARM1-TIR, enzyme inhibition studies", "format": "biochemical", "settings": "1 mM in the reaction mixture, 5 min", "experimental": "Ten microliters of beads incubated with the indicated cell lysate were incubated with 5 μM NAD in reaction buffer (92.4 mM NaCl and 0.64×PBS). Reactions were carried out at 25° C. for the indicated amount of time and stopped by addition of 1M of perchloric acid (HClO4) and placing the tube on ice. NAD+ metabolites were extracted using HClO4/K2CO3 method and quantified by HPLC (see HPLC for metabolite measurement).\nMetabolites were isolated from enzyme reaction mixture by extracting with 1M HClO4, then neutralized with 3M K2CO3, and followed by separation by centrifugation. The supernatant (90 μL) containing the extracted metabolites was mixed with 0.5M Potassium Phosphate buffer (10 μL) and metabolites were analyzed by HPLC (Nexera X2) with Kinetex (100×3 mm, 2.6 μm; Phenomenex) column. […] The levels for each compound in each experimental sample were normalized to the 0 min time point that was analyzed concurrently.\nThe reaction was stopped after 5 min and NAD+ metabolites were extracted by the perchloric acid method and measured by HPLC as indicated above."}, "SARM1 TIR [3]": {"target": "T1, SARM1 TIR", "assay": "In vitro NADase assay with SARM1-TIR complexes purified from NRK1-HEK293T cells, substrate specificity", "format": "biochemical", "procedure": "Approximately 10 million cells were plated and transfected the next day with 15 μg of StrepTag SARM1-TIR construct DNA using X-tremeGENE™ 9 reagent (Sigma-Aldrich, St. Louis MO). […] After 2 days the cells were harvested and lysed by sonication in binding buffer (50 mM Sodium Phosphate buffer pH 8, 300 mM Sodium Chloride, 0.01% Tween-20, protease inhibitor tablets). For single step affinity purification, the whole cell lysates were incubated with 20 μL MagStrep (Strep-Tactin) type 3 XT beads suspension (IBA Lifesciences) for 30 min. The beads were then washed three times with binding buffer and resuspended in 100 μL of binding buffer for enzymatic assays and other downstream applications.\nTen microliters of beads incubated with the indicated cell lysate were incubated with 5 μM NAD in reaction buffer (92.4 mM NaCl and 0.64×PBS). […] NAD+ metabolites were extracted using HClO4/K2CO3 method and quantified by HPLC (see HPLC for metabolite measurement). […]\nMetabolites were isolated from enzyme reaction mixture by extracting with 1M HClO4, then neutralized with 3M K2CO3, and followed by separation by centrifugation. The supernatant (90 μL) containing the extracted metabolites was mixed with 0.5M Potassium Phosphate buffer (10 μL) and metabolites were analyzed by HPLC (Nexera X2) with Kinetex (100×3 mm, 2.6 μm; Phenomenex) column. […]"}},
  "data": [
    {"molecule": "Br.CN(C)c1nc(=NCc2ccco2)ss1", "note": "[NSC622608]", "values": [
      {"measurement": "inhibition of NADase activity of purified SARM1 TIR", "setting": "SARM1 TIR [1]", "result": "inhibit NADase activity of purified SARM1 TIR"},
      {"measurement": "dose dependence of inhibition of axon degeneration", "setting": "DRG neurons; 0.05 to 5 μM, added 30 min before axotomy", "result": "dose dependent inhibition of axon degeneration"},
      {"measurement": "protection from axon degeneration (degeneration index)", "setting": "DRG neurons; 24 h after axotomy", "result": "significant protection"},
      {"measurement": "IC50", "setting": "SARM1 SAM-TIR lysate", "result": "~150", "unit": "nM"}
    ]},
    {"molecule": "Nc1ncnc2c1ncn2[C@@H]1O[C@H](COP(=O)(O)OP(=O)(O)OC[C@H]2OC(O)[C@H](O)[C@@H]2O)[C@@H](O)[C@H]1O", "note": "(stereo partly drawn) [ADPR, ADP Ribose]", "values": [
      {"measurement": "inhibition of SARM1-TIR NADase activity", "setting": "SARM1 TIR [2]", "result": "did not inhibit"}
    ]},
    {"molecule": "Nc1ncnc2c1ncn2[C@@H]1O[C@H](COP(=O)(O)OP(=O)(O)OC[C@H]2O[C@@H]([n+]3cccc(C(=O)O)c3)[C@H](O)[C@@H]2O)[C@@H](O)[C@H]1O", "note": "[NaAD, Nicotinic Acid Adenine Dinucleotide]", "values": [
      {"measurement": "degradation by wild type SARM1-TIR complexes (substrate specificity)", "setting": "SARM1 TIR [3]", "result": "do not degrade"}
    ]}
  ]
}
